According to publication PMC6251817 (Acta Pharmaceutica Sinica. B, 2018):

Biological target: T1, PTP1B (recombinant human GST-PTP1B) (Homo sapiens, UniProt P18031)
T1 sequence (P18031 1-435): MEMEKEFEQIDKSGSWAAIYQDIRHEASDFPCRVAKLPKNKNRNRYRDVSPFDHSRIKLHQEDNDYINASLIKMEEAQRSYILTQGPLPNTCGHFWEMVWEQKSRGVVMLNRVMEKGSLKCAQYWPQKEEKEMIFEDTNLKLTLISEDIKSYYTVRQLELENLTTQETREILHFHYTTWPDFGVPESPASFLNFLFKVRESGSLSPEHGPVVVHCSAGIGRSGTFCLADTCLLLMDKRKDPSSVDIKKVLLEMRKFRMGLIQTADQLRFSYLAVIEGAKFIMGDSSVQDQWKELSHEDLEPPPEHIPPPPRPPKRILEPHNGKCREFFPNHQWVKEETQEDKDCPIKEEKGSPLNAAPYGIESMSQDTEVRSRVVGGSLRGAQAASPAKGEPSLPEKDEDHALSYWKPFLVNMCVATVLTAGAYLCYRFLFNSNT
Experiment: pNPP hydrolysis, absorbance […] nm
Assay type: biochemical

SMILES | IC50 [µM]
COc1ccc(C(=O)NCc2ccc(C(=O)Nc3ccc(C(=O)Nc4ccccc4OC)cc3)cc2)cc1 [compound 23, 4-Methoxy-N-(4-((4-((2-methoxyphenyl)carbamoyl)phenyl)carbamoyl)benzyl)benzamide] | 4.76
CN(C)c1ccc(C(=O)CCc2ccc(C(=O)Nc3ccc(C(=O)Nc4ccccc4)cc3)cc2)cc1 [compound 4, 4-(3-(4-(Dimethylamino)phenyl)-3-oxopropyl)-N-(4-(phenylcarbamoyl)phenyl)benzamide] | 4.9
COc1ccc(CC(=O)Nc2ccc(NC(=O)c3ccc(/C=C/C(=O)c4ccc(OC)cc4)cc3)cc2)cc1 [compound 28, (E)-4-(3-(4-Methoxyphenyl)-3-oxoprop-1-en-1-yl)-N-(4-(2-(4-methoxyphenyl)acetamido)phenyl)benzamide] | 5.91
O=C(/C=C/c1ccc(C(=O)Nc2ccc(C(=O)Nc3ccccc3)cc2)cc1)c1ccc(F)cc1 [compound 9, (E)-4-(3-(4-Fluorophenyl)-3-oxoprop-1-en-1-yl)-N-(4-(phenylcarbamoyl)phenyl)benzamide] | 8.81
COc1ccc(C(=O)NCc2ccc(C(=O)Nc3ccc(NC(=O)c4ccccc4)cc3)cc2)cc1 [compound 31, N-(4-Benzamidophenyl)-4-((4-methoxybenzamido)methyl)benzamide] | 6.22
Cc1ccc(C(=O)/C=C/c2ccc(C(=O)Nc3ccc(C(=O)Nc4ccccc4)cc3)cc2)cc1 [compound 10, (E)-4-(3-Oxo-3-(p-tolyl)prop-1-en-1-yl)-N-(4-(phenylcarbamoyl)phenyl)benzamide] | 5.23
COc1ccc(C(=O)CCc2ccc(C(=O)Nc3ccc(C(=O)Nc4ccc(N5CCOCC5)cc4)cc3)cc2)cc1 [compound 8, 4-(3-(4-Methoxyphenyl)-3-oxopropyl)-N-(4-((4-morpholinophenyl)carbamoyl)phenyl)benzamide] | 7.26
COc1ccc(/C=C/C(=O)c2ccc(C(=O)Nc3ccc(NC(=O)Cc4ccc(OC)cc4)cc3)cc2)cc1 [compound 29, (E)-N-(4-(2-(4-Methoxyphenyl)acetamido)phenyl)-4-(3-(4-methoxyphenyl)acryloyl)benzamide] | 4.7
COc1ccc(C(=O)NCc2ccc(C(=O)Nc3ccc(C(=O)Nc4ccccc4)cc3)cc2)cc1 [compound 18, 4-Methoxy-N-(4-((4-(phenylcarbamoyl)phenyl)carbamoyl)benzyl)benzamide] | 8.16
COc1ccc(/C=C/C(=O)c2ccc(C(=O)Nc3ccc(C(=O)Nc4ccccc4)cc3)cc2)cc1 [compound 15, (E)-4-(3-(4-Methoxyphenyl)acryloyl)-N-(4-(phenylcarbamoyl)phenyl)benzamide] | 7.74
COc1ccc(C(=O)CCc2ccc(C(=O)Nc3cccc(C(=O)Nc4cc(OC)cc(OC)c4)c3)cc2)cc1 [compound 33, N-(3,5-Dimethoxyphenyl)-3-(4-(3-(4-methoxyphenyl)-3-oxopropyl)benzamido)benzamide] | 24.3
COc1ccc(C(=O)NCc2ccc(C(=O)Nc3ccc(C(=O)Nc4ccc(N5CCOCC5)cc4)cc3)cc2)cc1 [compound 20, 4-Methoxy-N-(4-((4-((4-morpholinophenyl)carbamoyl)phenyl)carbamoyl)benzyl)benzamide] | 6.85
COc1ccc(CC(=O)Nc2ccc(NC(=O)c3ccc(CCC(=O)c4ccc(OC)cc4)cc3)cc2)cc1 [compound 27, 4-(3-(4-Methoxyphenyl)-3-oxopropyl)-N-(4-(2-(4-methoxyphenyl)acetamido)phenyl)benzamide] | 4.19
